Reference: patent US20210255193A1, “LYSINE REACTIVE PROBES AND USES THEREOF” (The Scripps Research Institute, priority 2017, published 2021)
One block for each molecule: values may come before it.

Experiments:
Assay in all cases: competitive isoTOP-ABPP
Format in all cases: binding
[1] = molecular target: T1, RINT1 RAD50-interacting protein 1 (Homo sapiens, UniProt Q6NUQ1); conditions: 50 uM, 231 sol, in vitro; for R value (DMSO/fragment) for probe 1 labeling: Q6NUQ1_K771
T1 construct: isoTOP-ABPP experiments performed in cell lysates (in vitro); endogenous in cells; host or cells: soluble proteome of human cancer cell lines (MDA-MB-231; Ramos and Jurkat also prepared)
T1 sequence (Q6NUQ1 whole entry, the tested form may be a part): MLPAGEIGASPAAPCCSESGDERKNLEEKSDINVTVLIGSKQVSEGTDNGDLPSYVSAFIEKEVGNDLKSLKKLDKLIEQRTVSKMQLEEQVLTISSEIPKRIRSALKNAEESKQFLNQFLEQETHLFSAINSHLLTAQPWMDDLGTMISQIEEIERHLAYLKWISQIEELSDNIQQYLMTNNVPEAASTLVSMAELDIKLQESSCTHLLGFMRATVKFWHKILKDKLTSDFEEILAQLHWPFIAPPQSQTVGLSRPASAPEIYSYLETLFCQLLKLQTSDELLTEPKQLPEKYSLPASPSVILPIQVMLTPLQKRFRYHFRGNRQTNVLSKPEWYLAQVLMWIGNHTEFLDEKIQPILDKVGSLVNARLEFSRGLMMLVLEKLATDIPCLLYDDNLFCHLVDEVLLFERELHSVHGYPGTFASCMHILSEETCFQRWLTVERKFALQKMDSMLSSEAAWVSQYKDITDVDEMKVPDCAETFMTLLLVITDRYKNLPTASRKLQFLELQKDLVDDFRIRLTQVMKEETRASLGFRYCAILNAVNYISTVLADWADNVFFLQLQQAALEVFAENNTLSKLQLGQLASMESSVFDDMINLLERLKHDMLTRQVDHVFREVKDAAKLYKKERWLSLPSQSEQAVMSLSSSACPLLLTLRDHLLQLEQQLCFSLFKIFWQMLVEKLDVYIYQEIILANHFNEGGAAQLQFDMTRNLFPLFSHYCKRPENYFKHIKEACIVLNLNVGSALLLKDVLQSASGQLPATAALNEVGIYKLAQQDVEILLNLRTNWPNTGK
Outline: (§1)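 Here, isoTOP-ABPP measures loss of STP-alkyne labeling at individual lysines after fragment exposure in lysate. Activated esters are dosed at 50 μM, guanidinylating agents at 100 μM; the probe follows at 0.1 mM for 1 h. R ≥4 marks a liganded lysine.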

[2] = molecular target: T2, RQCD1 Cell differentiation protein RCD1 homolog (Homo sapiens, UniProt Q92600); conditions: 50 uM, 231 sol, in vitro; for R value (DMSO/fragment) for probe 1 labeling: Q92600_K230
T2 construct: isoTOP-ABPP experiments performed in cell lysates (in vitro); endogenous in cells; host or cells: soluble proteome of human cancer cell lines (MDA-MB-231; Ramos and Jurkat also prepared)
T2 sequence (Q92600 whole entry, the tested form may be a part): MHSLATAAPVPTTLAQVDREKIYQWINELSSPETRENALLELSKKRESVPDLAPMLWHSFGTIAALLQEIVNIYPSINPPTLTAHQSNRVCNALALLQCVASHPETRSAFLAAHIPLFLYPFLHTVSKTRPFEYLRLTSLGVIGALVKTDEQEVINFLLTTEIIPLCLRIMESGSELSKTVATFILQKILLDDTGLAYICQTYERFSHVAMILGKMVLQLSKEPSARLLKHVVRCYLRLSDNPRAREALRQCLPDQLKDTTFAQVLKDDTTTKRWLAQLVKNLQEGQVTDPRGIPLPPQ
Outline: as §1

[3] = molecular target: T3, HNRNPK Heterogeneous nuclear ribonucleoprotein K (Homo sapiens, UniProt P61978); conditions: 50 uM, 231 sol, in vitro; for R value (DMSO/fragment) for probe 1 labeling: P61978_K405
T3 construct: isoTOP-ABPP experiments performed in cell lysates (in vitro); endogenous in cells; host or cells: soluble proteome of human cancer cell lines (MDA-MB-231, Ramos, Jurkat)
Outline: as §1

[4] = molecular target: T4, ENOPH1 Enolase-phosphatase E1 (Homo sapiens, UniProt Q9UHY7); conditions: 50 uM, 231 sol, in vitro; for R value (DMSO/fragment) for probe 1 labeling: Q9UHY7_K111
T4 construct: endogenous in cells; host or cells: MDA-MB-231 (soluble fraction of lysate)
T4 sequence (Q9UHY7 whole entry, the tested form may be a part): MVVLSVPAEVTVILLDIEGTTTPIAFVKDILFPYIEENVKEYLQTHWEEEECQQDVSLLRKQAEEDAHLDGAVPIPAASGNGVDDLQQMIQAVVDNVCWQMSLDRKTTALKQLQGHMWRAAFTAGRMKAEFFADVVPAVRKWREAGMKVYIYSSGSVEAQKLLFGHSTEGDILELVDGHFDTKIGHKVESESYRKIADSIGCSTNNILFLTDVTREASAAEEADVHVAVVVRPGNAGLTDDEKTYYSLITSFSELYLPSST
Outline: as §1

CUL2 Cullin-2 = molecular target: T5, CUL2 Cullin-2 (Homo sapiens, UniProt Q13617); conditions: 50 uM, 231 sol, in vitro; for R value (DMSO/fragment) for probe 1 labeling: Q13617_K489
T5 construct: isoTOP-ABPP experiments performed in cell lysates (in vitro); endogenous in cells; host or cells: soluble proteome of human cancer cell lines (MDA-MB-231, Ramos, Jurkat)
T5 sequence (Q13617 whole entry, the tested form may be a part): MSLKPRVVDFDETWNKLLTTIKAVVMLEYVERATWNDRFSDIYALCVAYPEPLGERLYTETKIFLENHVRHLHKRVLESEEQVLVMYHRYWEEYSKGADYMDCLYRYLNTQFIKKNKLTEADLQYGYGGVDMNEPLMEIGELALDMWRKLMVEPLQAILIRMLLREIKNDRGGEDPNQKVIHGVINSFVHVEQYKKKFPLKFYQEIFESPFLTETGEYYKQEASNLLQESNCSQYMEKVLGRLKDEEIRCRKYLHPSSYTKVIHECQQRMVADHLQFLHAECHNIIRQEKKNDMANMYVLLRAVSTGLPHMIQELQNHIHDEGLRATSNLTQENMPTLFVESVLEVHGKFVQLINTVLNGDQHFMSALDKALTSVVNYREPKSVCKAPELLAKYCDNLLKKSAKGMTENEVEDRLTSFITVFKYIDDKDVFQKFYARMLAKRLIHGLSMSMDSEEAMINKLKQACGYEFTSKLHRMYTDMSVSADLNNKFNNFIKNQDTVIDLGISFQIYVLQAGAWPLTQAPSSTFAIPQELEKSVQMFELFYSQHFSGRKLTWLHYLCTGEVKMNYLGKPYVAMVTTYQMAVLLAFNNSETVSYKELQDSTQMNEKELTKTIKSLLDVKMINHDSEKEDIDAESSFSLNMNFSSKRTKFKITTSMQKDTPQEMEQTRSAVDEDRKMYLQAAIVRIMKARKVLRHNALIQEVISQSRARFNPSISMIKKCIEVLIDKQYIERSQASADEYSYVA
Outline: as §1

[5] = molecular target: T6, G6PD Glucose-6-phosphate 1-dehydrogenase (Homo sapiens, UniProt P11413); conditions: 50 uM, 231 sol, in vitro; for R value (DMSO/fragment) for probe 1 labeling: P11413_K171
T6 construct: isoTOP-ABPP experiments performed in cell lysates (in vitro); endogenous in cells; host or cells: MDA-MB-231 soluble lysate
T6 sequence (P11413 whole entry, the tested form may be a part): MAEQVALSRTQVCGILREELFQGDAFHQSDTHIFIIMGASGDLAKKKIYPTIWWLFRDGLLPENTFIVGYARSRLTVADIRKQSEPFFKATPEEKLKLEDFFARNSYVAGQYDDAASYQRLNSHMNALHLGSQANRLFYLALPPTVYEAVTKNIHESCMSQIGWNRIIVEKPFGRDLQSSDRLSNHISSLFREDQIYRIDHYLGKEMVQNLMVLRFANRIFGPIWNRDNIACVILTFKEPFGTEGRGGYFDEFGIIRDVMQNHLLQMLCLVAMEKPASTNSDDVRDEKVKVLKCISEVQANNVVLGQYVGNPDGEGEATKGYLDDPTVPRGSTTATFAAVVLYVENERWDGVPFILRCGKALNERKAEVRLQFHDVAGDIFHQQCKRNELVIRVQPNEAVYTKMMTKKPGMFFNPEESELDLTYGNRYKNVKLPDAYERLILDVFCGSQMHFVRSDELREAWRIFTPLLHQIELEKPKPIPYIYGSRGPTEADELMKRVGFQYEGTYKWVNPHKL
Outline: as §1

[6] = molecular target: T7, GLOD4 Glyoxalase domain-containing protein 4 (Homo sapiens, UniProt Q9HC38); conditions: 50 uM, 231 sol, in vitro; for R value (DMSO/fragment) for probe 1 labeling: Q9HC38_K305
T7 construct: endogenous in cells; host or cells: MDA-MB-231 (soluble fraction of lysate)
T7 sequence (Q9HC38 1-313): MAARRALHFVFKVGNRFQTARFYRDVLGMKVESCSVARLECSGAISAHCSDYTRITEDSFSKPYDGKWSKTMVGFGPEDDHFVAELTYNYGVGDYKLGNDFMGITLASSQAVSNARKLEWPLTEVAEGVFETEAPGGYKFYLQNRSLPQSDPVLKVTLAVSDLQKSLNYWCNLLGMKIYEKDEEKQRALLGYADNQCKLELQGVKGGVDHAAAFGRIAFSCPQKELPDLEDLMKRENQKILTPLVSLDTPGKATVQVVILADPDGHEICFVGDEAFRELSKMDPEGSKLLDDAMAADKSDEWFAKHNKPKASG
Outline: as §1

SMILES: O=C(Oc1c(F)c(F)c(F)c(F)c1F)c1cc(C(F)(F)F)cc(C(F)(F)F)c1 [fragment 21, Pentafluorophenyl 3,5-bis(trifluoromethyl)benzoate]
R value (DMSO/fragment) for probe 1 labeling [1]: 2.2
R value (DMSO/fragment) for probe 1 labeling [2]: 0.9
R value (DMSO/fragment) for probe 1 labeling [3]: 1.0
R value (DMSO/fragment) for probe 1 labeling [4]: 1.0
R value (DMSO/fragment) for probe 1 labeling (CUL2 Cullin-2): 0.9
R value (DMSO/fragment) for probe 1 labeling [5]: 0.8
R value (DMSO/fragment) for probe 1 labeling [6]: 0.8

SMILES: Cn1cc(CC(=O)Oc2c(F)c(F)c(F)c(F)c2F)c2ccccc21 [fragment 22, Pentafluorophenyl 2-(1-methyl-1H-indol-3-yl)acetate]
R value (DMSO/fragment) for probe 1 labeling [1]: 1.0
R value (DMSO/fragment) for probe 1 labeling [2]: 1.0
R value (DMSO/fragment) for probe 1 labeling [4]: 1.4
R value (DMSO/fragment) for probe 1 labeling (CUL2 Cullin-2): 1.0
R value (DMSO/fragment) for probe 1 labeling [5]: 0.7
R value (DMSO/fragment) for probe 1 labeling [6]: 0.7

SMILES: O=C(Oc1c(F)c(F)c(F)c(F)c1F)C1CCN(C(=O)OCc2ccccc2)CC1 [fragment 24, 1-Benzyl 4-(pentafluorophenyl) piperidine-1,4-dicarboxylate]
isoTOP-ABPP reactivity ratio at lysine Q6NUQ1_K771 [1]: 1.0
isoTOP-ABPP reactivity ratio at lysine Q9UHY7_K111 [4]: 1.4
isoTOP-ABPP reactivity ratio at lysine Q13617_K489 (CUL2 Cullin-2): 0.9
isoTOP-ABPP reactivity ratio at lysine P11413_K171 [5]: 0.9
isoTOP-ABPP reactivity ratio at lysine Q9HC38_K305 [6]: 1.5

SMILES: O=C(CN1C(=O)c2ccccc2C1=O)Oc1c(F)c(F)c(F)c(F)c1F [fragment 27, Pentafluorophenyl 2-(1,3-dioxoisoindolin-2-yl)acetate]
isoTOP-ABPP reactivity ratio at lysine Q6NUQ1_K771 [1]: 1.1
isoTOP-ABPP reactivity ratio at lysine P61978_K405 [3]: 1.0
isoTOP-ABPP reactivity ratio at lysine Q9UHY7_K111 [4]: 1.5
isoTOP-ABPP reactivity ratio at lysine Q13617_K489 (CUL2 Cullin-2): 1.1
isoTOP-ABPP reactivity ratio at lysine P11413_K171 [5]: 0.9
isoTOP-ABPP reactivity ratio at lysine Q9HC38_K305 [6]: 0.5

Continued, values first:

R value (DMSO/fragment) for probe 1 labeling [1]: 1.2
R value (DMSO/fragment) for probe 1 labeling [2]: 1.0
R value (DMSO/fragment) for probe 1 labeling [3]: 1.3
R value (DMSO/fragment) for probe 1 labeling [4]: 1.0
R value (DMSO/fragment) for probe 1 labeling (CUL2 Cullin-2): 0.8
R value (DMSO/fragment) for probe 1 labeling [5]: 0.9
R value (DMSO/fragment) for probe 1 labeling [6]: 0.9
SMILES: O=C(CCc1cn(-c2ccccc2)nc1-c1ccccc1)Oc1c(F)c(F)c(F)c(F)c1F [fragment 19, Pentafluorophenyl 3-(1,3-diphenyl-1H-pyrazol-4-yl)propanoate]

R value (DMSO/fragment) for probe 1 labeling [1]: 1.0
R value (DMSO/fragment) for probe 1 labeling [2]: 0.9
R value (DMSO/fragment) for probe 1 labeling [3]: 1.0
R value (DMSO/fragment) for probe 1 labeling [4]: 1.0
R value (DMSO/fragment) for probe 1 labeling (CUL2 Cullin-2): 0.8
R value (DMSO/fragment) for probe 1 labeling [5]: 0.7
R value (DMSO/fragment) for probe 1 labeling [6]: 0.8
SMILES: O=C(Oc1c(F)c(F)c(F)c(F)c1F)C(c1ccccc1)c1ccccc1 [fragment 20, Pentafluorophenyl 2,2-diphenylacetate]

R value (DMSO/fragment) for probe 1 labeling [1]: 1.1
R value (DMSO/fragment) for probe 1 labeling [2]: 1.1
R value (DMSO/fragment) for probe 1 labeling [4]: 1.3
R value (DMSO/fragment) for probe 1 labeling (CUL2 Cullin-2): 0.9
R value (DMSO/fragment) for probe 1 labeling [5]: 2.1
R value (DMSO/fragment) for probe 1 labeling [6]: 0.9
SMILES: COc1cc(CCC(=O)Oc2c(F)c(F)c(F)c(F)c2F)cc(OC)c1OC [fragment 23, Pentafluorophenyl 3-(3,4,5-trimethoxyphenyl)propanoate]

isoTOP-ABPP reactivity ratio at lysine Q6NUQ1_K771 [1]: 1.4
isoTOP-ABPP reactivity ratio at lysine P61978_K405 [3]: 1.3
isoTOP-ABPP reactivity ratio at lysine Q9UHY7_K111 [4]: 1.1
isoTOP-ABPP reactivity ratio at lysine Q13617_K489 (CUL2 Cullin-2): 1.1
isoTOP-ABPP reactivity ratio at lysine P11413_K171 [5]: 0.8
isoTOP-ABPP reactivity ratio at lysine Q9HC38_K305 [6]: 0.4
SMILES: O=C(Oc1c(F)c(F)c(F)c(F)c1F)c1ccc2ccccc2n1 [fragment 25, Pentafluorophenyl quinoline-2-carboxylate]

isoTOP-ABPP reactivity ratio at lysine Q6NUQ1_K771 [1]: 0.9
isoTOP-ABPP reactivity ratio at lysine Q92600_K230 [2]: 1.2
isoTOP-ABPP reactivity ratio at lysine P61978_K405 [3]: 0.9
isoTOP-ABPP reactivity ratio at lysine Q9UHY7_K111 [4]: 1.3
isoTOP-ABPP reactivity ratio at lysine Q13617_K489 (CUL2 Cullin-2): 0.9
isoTOP-ABPP reactivity ratio at lysine P11413_K171 [5]: 1.0
isoTOP-ABPP reactivity ratio at lysine Q9HC38_K305 [6]: 0.8
SMILES: O=C(CCc1coc2cc(F)ccc2c1=O)Oc1c(F)c(F)c(F)c(F)c1F [fragment 26, Pentafluorophenyl 3-(7-fluoro-4-oxo-4H-chromen-3-yl)propanoate]
